Experiment [1] has as its target T1, human ENPP-1 enzyme (Homo sapiens, UniProt P22413).
T1 construct: purchased R&D Systems
T1 sequence (P22413 1-925): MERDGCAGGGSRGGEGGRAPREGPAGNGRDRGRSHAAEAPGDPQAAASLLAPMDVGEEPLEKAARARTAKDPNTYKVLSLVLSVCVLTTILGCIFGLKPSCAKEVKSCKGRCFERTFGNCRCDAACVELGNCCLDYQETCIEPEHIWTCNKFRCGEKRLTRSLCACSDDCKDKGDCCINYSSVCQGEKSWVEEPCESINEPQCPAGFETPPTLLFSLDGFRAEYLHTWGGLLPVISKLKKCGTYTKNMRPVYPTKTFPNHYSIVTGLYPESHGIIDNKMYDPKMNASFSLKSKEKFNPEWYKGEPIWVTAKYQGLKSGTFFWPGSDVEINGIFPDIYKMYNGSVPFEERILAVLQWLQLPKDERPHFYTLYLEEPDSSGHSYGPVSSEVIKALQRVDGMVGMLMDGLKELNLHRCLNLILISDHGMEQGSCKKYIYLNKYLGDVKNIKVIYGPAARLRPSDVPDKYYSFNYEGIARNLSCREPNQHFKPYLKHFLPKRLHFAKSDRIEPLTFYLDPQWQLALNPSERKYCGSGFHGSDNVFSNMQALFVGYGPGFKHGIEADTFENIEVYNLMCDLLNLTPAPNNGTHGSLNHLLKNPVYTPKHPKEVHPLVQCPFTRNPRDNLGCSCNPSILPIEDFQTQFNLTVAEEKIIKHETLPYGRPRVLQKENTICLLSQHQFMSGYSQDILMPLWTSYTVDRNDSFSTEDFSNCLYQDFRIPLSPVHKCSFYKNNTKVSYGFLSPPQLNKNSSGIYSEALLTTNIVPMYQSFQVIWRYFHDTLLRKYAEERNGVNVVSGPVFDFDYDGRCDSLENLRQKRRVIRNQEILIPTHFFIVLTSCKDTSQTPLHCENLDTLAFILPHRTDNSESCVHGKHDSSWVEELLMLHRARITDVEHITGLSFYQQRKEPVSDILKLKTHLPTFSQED
Put plainly: ENPP1 Enzyme Assay with cGAMP Substrate (AMP-Glo). Format: biochemical. To be noted: 20 μM 2′3′-cGAMP substrate, 5 ng/well enzyme; for inhibition at 10 µM: 10 uM compound; for inhibition at 1 µM: 1 uM compound. The text has this: ENPP1 Enzyme Assay with cGAMP Substrate:
Ectonucleotide pyrophosphatase/phosphodiesterase 1 (ENPP-1) is a transmembrane glycoprotein that hydrolyzes nucleotides and nucleotide derivatives with the formation of nucleoside-5′-monophosphates. ENPP-1 hydrolyzes 2′3′-cGAMP (cGAMP), breaking it down into 5′-AMP and 5′-GMP. The 5′-AMP formed from the reaction is detected using the AMP-Glo® Kit (Promega). The assay kit contains two reagents. The first reagent terminates the enzymatic reaction, removes ATP (using adenylyl cyclase), and converts 5′-AMP produced into ADP (using polyphosphate: AMP phosphotransferase). The second reagent converts ADP to ATP (using adenylate kinase) and generates light from ATP using the luciferin/luciferase reaction. The amount of light measured is proportional to the amount of 5′-AMP produced by ENPP1.
Different concentrations of exemplary ENPP1 inhibitors (synthetic molecules #1-7; see Table 1) were pre-incubated with 5 ng/well of human ENPP-1 enzyme (R&D Systems) for 15 minutes at 37° C. The reaction was initiated by adding 20 μM 2′3′-cGAMP and incubating for 30 minutes at 37° C. The final assay reaction mixture contained a buffer of 50 mM Tris pH 8.0, 250 mM NaCl, 0.5 mM CaCl2, 1 μM ZnCl2 and 1% DMSO. At the end of the incubation, the reaction was stopped by adding 12 μl of AMP-Glo reagent-1 and mixing the reaction uniformly for 5 minutes, followed by incubation at room temperature for one hour. Then 25 μl of AMP Glo reagent-2 was added to the reaction, mixed uniformly with a pipette, and incubated at room temperature for one hour to convert the ADP formed from reagent-1 to ATP and light. The generated light was measured in a Perkin Elmer Victor® instrument. Maximal activity control samples (containing enzyme, substrate, and buffer in the absence of ENPP1 inhibitors: MAX) and background control samples (containing enzyme, substrate, and buffer plus a fully inhibitory concentration (3 μM) of the reference ENPP1 Inhibitor, MV-0000002: MIN) were simultaneously evaluated in order to calculate the percent inhibition at each compound concentration as follows:
% inhibition=(([MAX−MIN]−[COMPOUND−MIN])/[MAX−MIN])*100
The IC50 values for percent inhibition versus compound concentration were determined by fitting the inhibition curves using a four-parameter variable slope model in GraphPad Prism® software. Ki values are derived from the IC50 values using the Cheng-Prusoff equation: […]

Experiment [2] concerns the target T1, human ENPP-1 enzyme. As to the kind of experiment: ENPP1 Enzyme Assay with TMP-pNP Substrate (absorbance at 405 nm). To be noted: read-out: TMP-pNP: % inhibition at 10 uM; 10 uM compound; 200 μM TMP-pNP substrate; 15 ng/well enzyme. The format is biochemical. How it is done: ENPP1 Enzyme Assay with TMP-pNP Substrate:
ENPP-1 hydrolyzes thymidine 5′monophosphate p-nitrophenyl ester (TMP-pNP) to nucleotide-5′-monophosphate and p-nitrophenol, which is a chromogenic product. The amount of p-nitrophenol product formed is measured using its absorbance at 405 nm, which is directly proportional to enzyme activity. Different concentrations of inhibitors (synthetic molecules #1-7; see Table 1) were pre-incubated with 15 ng/well of human ENPP-1 enzyme (R&D Systems) for 15 minutes at 37° C. The reaction was initiated by adding 200 μM TMP-pNP and incubating for 10 minutes at 37° C. […] The amount of product formed was measured directly ina Tecan® spectrophotometer. Maximal activity control samples (containing enzyme, substrate, and buffer in the absence of ENPP1 inhibitors: MAX) and background control samples (containing enzyme, substrate, and buffer plus a fully inhibitory concentration (3 μM) of the reference ENPP1 Inhibitor, MV-0000002: MIN) are simultaneously evaluated in order to calculate the percent inhibition at each compound concentration as follows: […]
The IC50 values for percent inhibition versus compound concentration were determined by fitting the inhibition curves (percent inhibition versus inhibitor concentration) using a four-parameter variable slope model in GraphPad Prism® software. […]

As a reminder, the inhibition is the percentage by which the read-out fell short of the control. Take `COc1cc2ncnc(N3CCC4(CC3)CN(S(N)(=O)=O)C4)c2cc1OC` [compound 5, 7-(6,7-dimethoxyquinazolin-4-yl)-2,7-diazaspiro[3.5]nonane-2-sulfonamide]: the inhibition at 10 µM on human ENPP-1 enzyme [1] and at human ENPP-1 enzyme [2] was not below 75% each time. As for `Cn1ncc2c(N3CCC(CCNS(N)(=O)=O)CC3)ncnc21` [compound 3, N-(2-(1-(1-methyl-1H-pyrazolo[3,4-d]pyrimidin-4-yl)piperidin-4-yl)ethyl)sulfonic amide], on human ENPP-1 enzyme [1], the inhibition at 10 µM is not below 75%. At human ENPP-1 enzyme [1], `COc1cc2ncnc(N3CCc4c(cccc4S(N)(=O)=O)C3)c2cc1OC` [compound 6, 2-(6,7-dimethoxyquinazolin-4-yl)-1,2,3,4-tetrahydroisoquinoline-5-sulfonamide] displayed an inhibition at 1 µM not below 75%.

`COc1cc2ncc(C(N)=O)c(N3CCC(CCNS(N)(=O)=O)CC3)c2cc1OC` [compound 2, 6,7-dimethoxy-4-(4-(2-(sulfamoylamino)ethyl)piperidin-1-yl)quinoline-3-carboxamide] yielded an inhibition at 1 µM against human ENPP-1 enzyme [1] not below 75%. Further, on human ENPP-1 enzyme [2], the inhibition at 10 µM is not below 75%. On human ENPP-1 enzyme [1], `COc1cc2ncnc(NCCc3cccc(NS(N)(=O)=O)c3)c2cc1OC` [compound 7, N-(3-(2-((6,7-dimethoxyquinazolin-4-yl)amino)ethyl)phenyl)sulfonic amide] returned an inhibition at 10 µM not below 75%.
